Measured values from publication PMC9961948, “Interaction of Amphipathic Peptide from Influenza Virus M1 Protein with Mitochondrial Cytochrome Oxidase” (International Journal of Molecular Sciences, 2023).
Like-named read-outs stand apart in the source and are kept apart here.

What was measured:
[1] = target: T1, cytochrome c oxidase (CcO) purified from heart mitochondria (Bos taurus, UniProt P00396+P07471+P68530); experiment: Cytochrome oxidase activity of solubilized mitochondrial CcO (oxygen uptake); format: biochemical
T1 construct: Cytochrome c oxidase was purified from the heart mitochondria of Bos taurus; from tissue; host or cells: bovine heart mitochondria

[2] = Permeabilization of calcein-loaded asolectin liposomes (calcein release); details: 5 μM peptide
[3] = target: T2, CcO in rat liver mitochondria (Rattus norvegicus, UniProt P00406+P05503); experiment: CcO activity in the mitochondrial membrane (respiration of rat liver mitochondria); format: biochemical
T2 construct: Rat liver mitochondria were isolated by differential centrifugation; from tissue; host or cells: rat liver mitochondria
T2 sequence (P00406 whole entry, other chains not shown): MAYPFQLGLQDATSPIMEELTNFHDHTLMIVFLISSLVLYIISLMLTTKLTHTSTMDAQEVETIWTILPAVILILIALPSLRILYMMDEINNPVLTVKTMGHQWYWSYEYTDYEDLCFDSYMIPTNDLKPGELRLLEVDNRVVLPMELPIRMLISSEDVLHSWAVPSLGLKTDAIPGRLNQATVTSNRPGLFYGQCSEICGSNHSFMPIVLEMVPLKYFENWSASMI

[4] = system: cytochrome c oxidase (CcO), peroxidase activity; experiment: Peroxidase partial activity of solubilized CcO (peroxidation of ferrocyanide); format: biochemical, Bos taurus; details: 50 μM P4; 0.6 μM solubilized CcO, 0.2 mM ferrocyanide with equimolar ferricyanide, 4 mM H2O2
Experimental: The two-electron reduction of H2O2 to water refers to the peroxidase phase of the CcO catalytic cycle. As shown previously, this reaction can be carried out aerobically using a high-potential electron donor [51]. We followed this partial activity of CcO in the presence of a ferro/ferricyanide pair at E’ ≈ +420 mV when the oxidase reaction becomes negligible. Peroxidation of ferrocyanide by CcO was recorded spectrophotometrically (Figure 3).
Peroxidation of 0.2 mM ferrocyanide (against the background of equimolar ferricyanide) was monitored at 0.6 μM solubilized CcO. The reaction was triggered by the addition of 4 mM H2O2 (shown by the arrow). […] The initial jump upon H2O2 addition reflects spectral response in the γ-band of heme a3 upon oxoferryl intermediate formation.
Peroxidase partial activity of CcO was assayed in BM following peroxidation of ferrocyanide by the absorption difference at 420 nm vs. 500 nm references, using the spectrophotometer SLM Aminco DW-2000 (SLM Instruments, Urbana, IL, USA) in a dual-wavelength mode. In order to obtain a redox buffer with Em ≈ 420 mV, equal amounts of ferri- and ferrocyanide were mixed. No ferrocyanide oxidase activity was observed until the peroxidase reaction was initiated by the addition of H2O2. The reaction was carried out in a standard semi-micro cuvette (Hellma, Mullheim, Germany) with blackened side walls and a 10 mm light pathway.

[5] = system: CcO reconstituted into asolectin vesicles; experiment: CcO activity in asolectin proteoliposomes; format: biochemical, Bos taurus; details: peptide up to 150 μM

## Ac-RTKLWEMLVELGNMDKAVKLWRKLKR-NH2 [P4]
[1]; 20 μM P4 added in the course of the reaction, constant level 1.5 min later, solubilized CcO 20 nM
  final rate of the oxidase reaction, % of the initial: ≤ 15%
[1]; solubilized bovine heart CcO 20 nM, oxygen uptake, Clark electrode, 25 °C, BM 50 mM Hepes/Tris pH 7.6, 50 mM KCl, 1 mM (0.05%) DM, 5 mM ascorbate, 0.1 mM TMPD, 10 μM cytochrome c, fit by Equation (1), read-out: Inhibition of CcO, Solubilized, Ki(app)
  Ki: 0.0076 mM
[1]; solubilized mitochondrial CcO, intercept of linear dependence of Ki(app) on [DM], read-out: true Ki (extrapolation of DM to zero)
  Ki: 0.003 mM
[2]; 100% = after Triton X-100 0.1%
  time to reach the 100% level of calcein release: 3 min
[2]; liposomes 0.1 mg lipid/mL, 20 mM MOPS/Tris pH 7.3, 0.2 mM EDTA, fluorescence 520 nm (excitation 490 nm)
  t1/2 of fluorescence increase (calcein release): ~ 12 s
[3]
  inhibitor concentration up to which the rate of the oxidase reaction remains almost unchanged: ~ 10 μM
[4]
  rate of peroxidase reaction (ferricyanide formation) upon addition of peptide: did not change
[5]
  oxidase reaction rate of CcO in proteoliposomes upon addition of peptide: does not change the reaction rate
